Values joined by “and” are separate entries in the source; they are usually repeats but may differ in a detail not shown here. Identical values can stand only once. Counter-ions that a name gives are not always drawn.

The values that follow come from PMC12016938, “A small molecule PKCε inhibitor reduces hyperalgesia induced by paclitaxel or opioid withdrawal” (JCI Insight, 2025).

For this series, the system named is hyperalgesia induced by morphine withdrawal. Briefly: Time course of hyperalgesia induced by morphine withdrawal, von Frey SUDO. To be noted: for von Frey filament number that led to paw withdrawal: single male mouse; for Hyperalgesia after withdrawal from repeated morphine: male C57BL/6J mice, 20–100 mg/kg i.p. twice daily 5 days.

Consider `CN1CC[C@]23c4c5ccc(O)c4O[C@H]2[C@@H](O)C=C[C@H]3[C@H]1C5` [Morphine, Morphine sulfate, reference compound], for which the “von Frey filament number that led to paw withdrawal” value by setting is: (1week after last morphine injection) 5.5 filament number and 7.5 filament number and 6 filament number; (6h after last morphine injection) 7.5 filament number and 9.5 filament number and 8 filament number and 7 filament number; (24h after last morphine injection) 5.5 filament number and 6.5 filament number and 6 filament number and 7.5 filament number; (Baseline) 7.5 filament number and 8.5 filament number and 8 filament number and 9.5 filament number. Also, the “Hyperalgesia after withdrawal from repeated morphine” value is, setting by setting: (6 hours after last injection) “not present”; (24 hours and 1 week after last injection) “present”.
